Assays:
Test in all cases: Kinase selectivity, scanMAX Kinase assay panel (DiscoverX), % control at 1 uM
Format in all cases: binding
[1] = biological target: T1, scanMAX Kinase assay panel (Homo sapiens, UniProt O00141); conditions: SGK; 1 uM; read-out: Percent Control (%)
T1 construct: purchased DiscoverX
T1 sequence (O00141 1-431): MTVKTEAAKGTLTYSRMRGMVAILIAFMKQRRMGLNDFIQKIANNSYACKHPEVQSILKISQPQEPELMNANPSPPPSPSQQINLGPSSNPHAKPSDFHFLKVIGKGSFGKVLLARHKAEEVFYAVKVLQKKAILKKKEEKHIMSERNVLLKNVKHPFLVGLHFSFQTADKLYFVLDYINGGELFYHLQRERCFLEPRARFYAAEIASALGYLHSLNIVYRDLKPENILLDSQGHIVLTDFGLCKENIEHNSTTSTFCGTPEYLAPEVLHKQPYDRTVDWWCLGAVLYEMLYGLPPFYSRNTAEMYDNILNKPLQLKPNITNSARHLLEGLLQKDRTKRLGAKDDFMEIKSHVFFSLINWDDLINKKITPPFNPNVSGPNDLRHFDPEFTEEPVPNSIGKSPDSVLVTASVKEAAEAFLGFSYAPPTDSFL
Method in brief: (§1)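 1 uM cpd (DMSO) per kinase; % ctrl = [cpd − pos ctrl]/[neg ctrl − pos ctrl] × 100; hit if <35.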

[2] = biological target: T2, scanMAX Kinase assay panel (Homo sapiens, UniProt P54760); conditions: EPHB4; 1 uM; read-out: Percent Control (%)
T2 construct: purchased DiscoverX
T2 sequence (P54760 16-987): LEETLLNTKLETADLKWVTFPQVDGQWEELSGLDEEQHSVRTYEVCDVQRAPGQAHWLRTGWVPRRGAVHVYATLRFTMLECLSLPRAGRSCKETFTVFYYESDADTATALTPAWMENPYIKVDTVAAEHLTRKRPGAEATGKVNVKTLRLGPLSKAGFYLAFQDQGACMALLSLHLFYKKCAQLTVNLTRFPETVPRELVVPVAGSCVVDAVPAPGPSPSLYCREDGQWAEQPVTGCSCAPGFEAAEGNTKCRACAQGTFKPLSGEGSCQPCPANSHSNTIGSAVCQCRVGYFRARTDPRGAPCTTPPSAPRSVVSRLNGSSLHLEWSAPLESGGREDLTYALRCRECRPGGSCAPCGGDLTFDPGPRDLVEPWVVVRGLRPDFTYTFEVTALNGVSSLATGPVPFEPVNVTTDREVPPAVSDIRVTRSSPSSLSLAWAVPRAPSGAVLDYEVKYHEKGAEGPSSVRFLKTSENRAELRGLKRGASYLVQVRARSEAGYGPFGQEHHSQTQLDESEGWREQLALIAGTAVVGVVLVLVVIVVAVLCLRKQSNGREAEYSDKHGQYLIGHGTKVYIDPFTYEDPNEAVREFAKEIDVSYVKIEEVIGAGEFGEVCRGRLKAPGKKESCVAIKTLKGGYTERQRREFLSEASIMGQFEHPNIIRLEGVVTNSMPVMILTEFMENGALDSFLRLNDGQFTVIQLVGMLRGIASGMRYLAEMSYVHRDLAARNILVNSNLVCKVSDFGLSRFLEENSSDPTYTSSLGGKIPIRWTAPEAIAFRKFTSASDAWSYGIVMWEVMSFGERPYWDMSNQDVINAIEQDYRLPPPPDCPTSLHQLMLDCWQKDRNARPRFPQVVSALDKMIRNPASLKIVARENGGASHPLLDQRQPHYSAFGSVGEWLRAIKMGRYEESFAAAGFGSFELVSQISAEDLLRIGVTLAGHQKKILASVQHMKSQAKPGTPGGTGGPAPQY
Method in brief: as §1

[3] = biological target: T3, scanMAX Kinase assay panel (Homo sapiens, UniProt Q13546); conditions: RIPK1; 1 uM; read-out: Percent Control (%)
T3 construct: purchased DiscoverX
T3 sequence (Q13546 1-671): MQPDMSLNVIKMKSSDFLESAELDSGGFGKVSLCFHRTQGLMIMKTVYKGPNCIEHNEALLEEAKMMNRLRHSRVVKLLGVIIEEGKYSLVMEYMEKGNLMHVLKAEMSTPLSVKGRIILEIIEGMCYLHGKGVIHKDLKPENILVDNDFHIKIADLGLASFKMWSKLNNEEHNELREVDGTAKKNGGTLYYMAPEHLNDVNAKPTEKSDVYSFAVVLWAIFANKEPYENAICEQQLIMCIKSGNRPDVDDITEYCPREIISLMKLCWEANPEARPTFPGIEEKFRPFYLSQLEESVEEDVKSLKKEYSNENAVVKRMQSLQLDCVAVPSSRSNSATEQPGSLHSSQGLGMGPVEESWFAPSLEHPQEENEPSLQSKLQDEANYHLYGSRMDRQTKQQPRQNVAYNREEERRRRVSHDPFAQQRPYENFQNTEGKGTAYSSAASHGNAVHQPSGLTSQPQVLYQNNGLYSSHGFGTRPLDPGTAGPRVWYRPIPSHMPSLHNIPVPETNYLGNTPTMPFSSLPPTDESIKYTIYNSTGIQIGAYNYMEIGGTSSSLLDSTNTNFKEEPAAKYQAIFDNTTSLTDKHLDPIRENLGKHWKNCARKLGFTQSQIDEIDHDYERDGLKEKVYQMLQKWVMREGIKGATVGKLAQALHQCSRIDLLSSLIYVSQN
Method in brief: as §1

[4] = biological target: T4, scanMAX Kinase assay panel (Homo sapiens, UniProt Q9NSY1); conditions: BIKE; 1 uM; read-out: Percent Control (%)
T4 construct: purchased DiscoverX
T4 sequence (Q9NSY1 whole entry): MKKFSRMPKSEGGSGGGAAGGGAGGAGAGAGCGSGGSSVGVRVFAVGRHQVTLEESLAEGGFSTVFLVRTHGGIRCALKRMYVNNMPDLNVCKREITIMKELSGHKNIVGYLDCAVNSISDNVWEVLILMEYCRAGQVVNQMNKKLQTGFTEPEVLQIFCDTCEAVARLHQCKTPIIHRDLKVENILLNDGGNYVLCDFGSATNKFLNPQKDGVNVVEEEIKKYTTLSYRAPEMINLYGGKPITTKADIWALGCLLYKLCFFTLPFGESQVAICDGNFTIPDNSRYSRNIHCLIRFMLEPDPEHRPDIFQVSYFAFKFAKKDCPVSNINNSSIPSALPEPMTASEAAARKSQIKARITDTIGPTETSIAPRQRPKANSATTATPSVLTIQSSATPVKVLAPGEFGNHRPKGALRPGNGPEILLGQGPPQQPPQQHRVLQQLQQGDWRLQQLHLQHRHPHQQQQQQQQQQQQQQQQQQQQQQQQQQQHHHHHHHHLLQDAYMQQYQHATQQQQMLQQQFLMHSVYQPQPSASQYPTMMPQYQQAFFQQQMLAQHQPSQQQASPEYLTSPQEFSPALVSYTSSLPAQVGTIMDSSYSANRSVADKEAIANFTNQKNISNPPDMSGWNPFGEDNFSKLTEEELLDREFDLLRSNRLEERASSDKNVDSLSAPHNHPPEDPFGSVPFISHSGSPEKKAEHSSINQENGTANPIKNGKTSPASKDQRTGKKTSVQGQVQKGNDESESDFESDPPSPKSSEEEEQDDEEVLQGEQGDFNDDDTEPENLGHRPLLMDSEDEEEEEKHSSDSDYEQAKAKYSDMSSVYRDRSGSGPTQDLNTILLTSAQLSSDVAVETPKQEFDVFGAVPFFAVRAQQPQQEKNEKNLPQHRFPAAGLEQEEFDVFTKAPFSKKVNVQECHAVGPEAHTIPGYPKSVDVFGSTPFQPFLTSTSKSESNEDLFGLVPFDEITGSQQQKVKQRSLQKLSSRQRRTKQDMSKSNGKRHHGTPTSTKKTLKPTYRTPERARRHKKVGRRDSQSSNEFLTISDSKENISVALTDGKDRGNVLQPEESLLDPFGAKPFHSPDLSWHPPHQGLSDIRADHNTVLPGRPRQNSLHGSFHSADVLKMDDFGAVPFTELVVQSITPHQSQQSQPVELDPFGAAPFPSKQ
Method in brief: as §1

SMILES | remaining binding at 1 µM [1] [%] | remaining binding at 1 µM [2] [%] | remaining binding at 1 µM [3] [%] | remaining binding at 1 µM [4] [%]
Cc1ccc(NC(=O)C2(C(=O)Nc3ccc(F)cc3)CC2)cc1C#Cc1cnc2c(Nc3cnn(C(C)C)c3)cccn12 [Example 78] | 96 | 100 | 19 | 100
Cc1cn(-c2cc(NC(=O)c3ccc(C)c(C#Cc4cnc5c(Nc6cnn(C)c6)cccn45)c3)cc(C(F)(F)F)c2)cn1 [Example 12, 4-methyl-N-(3-(4-methyl-1H-imidazol-1-yl)-5-(trifluoromethyl)phenyl)-3-((8-((1-methyl-1H-pyrazol-4-yl)amino)imidazo[1,2-a]pyridin-3-yl)ethynyl)benzamide] | 100 | 41 | 5 | 85
Cc1ccc(C(=O)Nc2ccc(CN3CCN(C)CC3)c(C(F)(F)F)c2)cc1C#Cc1cnc2c(Nc3cnn(C)c3)cccn12 [Example 1, 4-methyl-3-((8-((1-methyl-1H-pyrazol-4-yl)amino)imidazo[1,2-a]pyridin-3-yl)ethynyl)-N-(4-((4-methylpiperazin-1-yl)methyl)-3-(trifluoromethyl)phenyl)benzamide] | 93 | 3 | 0 | 81

— patent US10870647B2, “Imidazopyridine derivative, method for preparing same, and pharmaceutical composition containing same as active ingredient for preventing or treating cancer” (DAEGU-GYEONGBUK MEDICAL INNOVATION FOUNDATION, priority 2016, dated 2020)
